Assay results from patent US10195156B2, “Compounds and compositions for intracellular delivery of agents” (ModernaTX, Inc., priority 2015, dated 2019).
Read-outs that look alike come from different tables or passages of the source.

How the values were obtained:
hEPO mRNA expression = experiment: Expression of hEPO in rats after intravenous administration; format: in vivo; details: for hEPO (pg/mL) 3 hours / hEPO (pg/mL) 6 hours / hEPO (pg/mL) 24 hours: Table 6, 0.2 mg/kg or 0.5 mg/kg; for Lipid/MC3 hEPO S.D. (rats): hEPO expression relative to MC3, S.D. rats, intravenous
Method: PBS (phosphate buffered saline) is used as control.
Formulations were prepared according to Table 5 and included mRNA encoding hEPO.
[…] After the 48 hour time point, livers and spleens were harvested and frozen.

[1] = Lipid levels in liver and spleen 48 hours after administration; format: in vivo, rats; details: 48 hours after administration; for concentration at 48 h: Sprague-Dawley, rat, intravenous
Method: Formulations were administered intravenously to rats (n=3 or 6) at a dosage of 0.2 mg/kg or 0.5 mg/kg (mpk) and hEPO levels measured at 3, 6, and 24 hour time points. After the 48 hour time point, livers and spleens were harvested and frozen.
The amount of lipid in the liver and spleen 48 hours after administration of a nanoparticle composition was also measured. […] In contrast, approximately 60% of doses including MC3 or Compound 22 remained in the liver after 48 hours. Less than 3% of the dose remained in the spleen for each composition tested.

[2] = pKa of nanoparticle compositions; format: physicochemical
[3] = Particle size and polydispersity index of nanoparticle compositions (Zetasizer Nano ZS); format: physicochemical
In short: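 Nanoparticle compositions are diluted in 1×PBS, then size and polydispersity index are read on a Zetasizer Nano ZS instrument.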

[4] = Concentration of RNA in nanoparticle composition (ultraviolet-visible spectroscopy); format: physicochemical; details: Table 5; hEPO mRNA; 40:20:38.5:1.5 Lipid:DOPE:Chol:PEG-DMG
Method: Ultraviolet-visible spectroscopy can be used to determine the concentration of a therapeutic and/or prophylactic agent (e.g., RNA) in nanoparticle compositions. 100 μL of the diluted formulation in 1×PBS is added to 900 μL of a 4:1 (v/v) mixture of methanol and chloroform. After mixing, the absorbance spectrum of the solution is recorded, for example, between 230 nm and 330 nm on a DU 800 spectrophotometer (Beckman Coulter, Beckman Coulter, Inc., Brea, Calif.). The concentration of therapeutic and/or prophylactic agent in the nanoparticle composition can be calculated based on the extinction coefficient of the therapeutic and/or prophylactic agent used in the composition and on the difference between the absorbance at a wavelength of, for example, 260 nm and the baseline value at a wavelength of, for example, 330 nm.

[5] = Encapsulation efficiency of RNA (QUANT-IT RIBOGREEN RNA assay); format: physicochemical
In short: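 Nanoparticle samples diluted to ~5 μg/mL RNA in TE buffer (pH 7.5), incubated with or without 2% Triton X-100 solution at 37 °C for 15 min, then RiboGreen added. Fluorescence read at ~480/520 nm, blank-subtracted; free RNA % = intact over Triton-disrupted signal.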

IL-6 = experiment: Cytokine production induced by sample formulations: IL-6; format: in vivo; details: Table 4; mice, i.v., 0.5 mpk, 6 hours; in pg/mL (unit assumed)
In short: (§1)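 Mice received nanoparticle formulations intravenously at 0.5 mpk, with standard MC3 formulation and PBS as controls. Cytokine concentrations were measured 6 hours after dosing.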

[6] = tested on: modified luciferase expression; experiment: Expression of Luc in different organs (liver, lung, spleen, femur) 6 hours after intravenous administration; format: in vivo; details: i.v., 0.5 mpk
Method: The efficacy of the nanoparticle compositions presented in Tables 1, 1a, 17-1, 19-1, 20-1 and 21-1 was further evaluated by measuring the expression of modified luciferase in the liver, lung, spleen, and femur upon administration of a given composition. Formulations were administered intravenously to mice (n=3) at a dosage of 0.5 mpk and bioluminescence measured after 6 hours. The standard MC3 formulation and a PBS control were also tested.

[7] = tested on: luciferase (Luc) mRNA expression; experiment: Expression of Luc induced by sample formulations, whole-body bioluminescence after intravenous administration; format: in vivo; details: for Total Flux 3 hours / Total Flux 6 hours / Total Flux 24 hours: Table 2, mice, i.v., 0.5 mg/kg
In short: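 Mice (n=6) dosed intravenously with Luc mRNA nanoparticle formulations at 0.5 mg/kg. Whole-body bioluminescence measured at 3, 6 and 24 h. Standard MC3 formulation and PBS control run alongside.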

IP-10 = experiment: Cytokine production induced by sample formulations: IP-10; format: in vivo; details: Table 4; mice, i.v., 0.5 mpk, 6 hours; in pg/mL (unit assumed)
In short: as §1

LDL-c = experiment: LDL levels in LDLr−/− mice after mRNA encoding the LDL receptor; format: in vivo, LDLR knockout mice; details: Mus musculus; Table 7b; LDLr−/− mice, 0.5 mpk, LDLr; read-out: LDL levels lipid/untreated LDLr−/− mice 0.5 mpk, LDLr
[8] = Tolerability / toxicity in rats (hEPO study); format: in vivo; details: FIG. 8, i.v., 2 mg/kg dose
[9] = liver, read-out: Lipid in liver
[10] = spleen, read-out: Lipid in spleen
[11] = Table 1, # formulated with hEPO mRNA
[12] = Table 5, hEPO mRNA, 40:20:38.5:1.5 Lipid:DOPE:Chol:PEG-DMG
[13] = Table 1, rows without footnote mark
[14] = Table 1, rows without footnote mark (lipid:DOPE:cholesterol:PEG-DMG 40:20:38.5:1.5, Luc mRNA; MC3 standard formulation)

Structure (SMILES)	concentration at 48 h [1, 9] [ng/g]	concentration at 48 h [1, 10] [ng/g]	% remaining dose in liver ([1]; liver) [%]	% remaining dose in spleen ([1]; spleen) [%]	pKa [2, 11]	pKa [2, 12]	PDI [3, 11]	Size (nm) [3, 11] [nm]	PDI [3, 12]	Size (nm) [3, 12] [nm]	Conc. [4] [µg/mL]	EE (%) [5, 11] [%]	EE (%) [5, 12] [%]	IL-6 (IL-6)	hEPO (pg/mL) 3 hours (hEPO mRNA expression; rats, i.v.) [pg/mL]	hEPO (pg/mL) 6 hours (hEPO mRNA expression; rats, i.v.) [pg/mL]	hEPO (pg/mL) 24 hours (hEPO mRNA expression; rats, i.v.) [pg/mL]	Lipid/MC3 hEPO S.D. (rats) (hEPO mRNA expression)	Total Flux Liver ([6]; Table 3, mice)	Total Flux Lung ([6]; Table 3, mice)	further results
CCCCCCCCCCCCN(CCCCCCCCCCCC)CCN(CCCCCCCCCCCC)CCN1CCN(CCN(CCCCCCCCCCCC)CCCCCCCCCCCC(=O)OC)CC1 [Compound 15, Methyl 12-((2-(4-(2-((2-(didodecylamino)ethyl)(dodecyl)amino)ethyl)piperazin-1-yl)ethyl)(dodecyl)amino)dodecanoate]	3070	971	4.22	0.089	6.32	6.323	0.120	100.3	0.12	100.3	713.00	90.2	90.15	–	103773	125320	67965	0.095	–	–	–
CCCCCCCCCCCCN(CCCCCCCCCCCC)CCN(CCCCCCCCCCCC)CCN1CCN(CCN(CCCCCC(=O)OCCCCC)CCCCCC(=O)OCCCCC)CC1 [Compound 14, Dipentyl 6,6′-((2-(4-(2-((2-(didodecylamino)ethyl)(dodecyl)amino)ethyl)piperazin-1-yl)ethyl)azanediyl)dihexanoate]	3990	1620	5.54	0.15	–	6.308	–	–	0.14	76.8	603.76	–	98.91	17	280973	158520	58805	0.12	2.62E+08	3.56E+06	Total Flux Spleen ([6]; Table 3, mice): 1.46E+07; pKa [2, 13]: 6.31; Total Flux 3 hours [7]: 9.86E+08; Total Flux 6 hours [7]: 1.56E+09; Total Flux 24 hours [7]: 1.02E+08; Luc expression in mice compared with MC3 (in words) ([7]; Table 7a): significantly lower; PDI [3, 13]: 0.008; Size (nm) [3, 14]: 88.7 nm; IP-10 (IP-10): 209; EE (%) [5, 13]: 96.6%
CCCCCCCCCCCCN(CCCCCCCCCCCC)CCN(CCCCCCCCCCCC)CCN1CCN(CCN(CCCCCCCCCCCC)CCCCCCCCCCCC)CC1 [KL22, N1-[2-(didodecylamino)ethyl]-N1,N4,N4-tridodecyl-1,4-piperazinediethanamine, reference compound]	–	–	–	–	–	–	–	–	–	–	–	–	–	–	–	–	–	–	–	–	hEPO expression in rats (in words) (hEPO mRNA expression; FIG. 8, rats, i.v., 2 mpk (Graph A)): do not express hEPO in rats; response vs control in vivo at 0.5 mg/kg (LDL-c): 51%; tolerability / toxicity in rats (in words) [8]: toxic

Continued, in another order:

concentration at 48 h [1, 9] [ng/g]	concentration at 48 h [1, 10] [ng/g]	% remaining dose in liver ([1]; liver) [%]	% remaining dose in spleen ([1]; spleen) [%]	pKa [2, 11]	pKa [2, 12]	PDI [3, 11]	Size (nm) [3, 11] [nm]	PDI [3, 12]	Size (nm) [3, 12] [nm]	Conc. [4] [µg/mL]	EE (%) [5, 11] [%]	EE (%) [5, 12] [%]	IL-6 (IL-6)	Structure (SMILES)	hEPO (pg/mL) 3 hours (hEPO mRNA expression; rats, i.v.) [pg/mL]	hEPO (pg/mL) 6 hours (hEPO mRNA expression; rats, i.v.) [pg/mL]	hEPO (pg/mL) 24 hours (hEPO mRNA expression; rats, i.v.) [pg/mL]	Lipid/MC3 hEPO S.D. (rats) (hEPO mRNA expression)	Total Flux Liver ([6]; Table 3, mice)	Total Flux Lung ([6]; Table 3, mice)	further results
597	293	0.79	0.026	6.28	6.282	0.140	77.4	0.14	77.4	665.11	98.2	98.22	–	CCCCCCCCCCCCN(CCCCCCCCCCCC)CCN(CCCCCCCCCCCC)CCN1CCN(CCN(CCCCCCCCCCCC(=O)OC)CCCCCCCCCCCC(=O)OC)CC1 [Compound 16, Dimethyl 12,12′-((2-(4-(2-((2-(didodecylamino)ethyl)(dodecyl)amino)ethyl)piperazin-1-yl)ethyl)azanediyl)didodecanoate]	35387	41720	17184	0.031	–	–	hEPO expression in rats, comparison (in words) (hEPO mRNA expression; rats, i.v., 0.2 or 0.5 mg/kg, Tables 6, 7a): lowest hEPO expression at each time point
–	–	–	–	–	–	–	–	0.14	114.5	1264.28	–	94.39	127	CCCCCCCCCCCCCCN(CCCCCCCCCCCCCC)CCN1CCN(CCN(CCCCCCCCC)CCN(CCCCCCCCC)CCCCCCCCC)CC1 [Compound 20, N^1-(2-(4-(2-(Ditetradecylamino)ethyl)piperazin-1-yl)ethyl)-N^1,N^2,N^2-trinonylethane-1,2-diamine]	–	227420	–	–	1.42E+10	1.46E+08	Total Flux Femur ([6]; Table 3, mice, femur): 8.91E+06; Total Flux Spleen ([6]; Table 3, mice): 6.11E+07; total flux in organs, rank or organ comparison (in words) ([6]; mice, each organ or overall): highest total flux; pKa [2, 13]: 6.12; Total Flux 3 hours [7]: 1.00E+11; Total Flux 6 hours [7]: 1.11E+11; Total Flux 24 hours [7]: 4.60E+09; PDI [3, 13]: 0.150; Size (nm) [3, 14]: 106.4 nm; IP-10 (IP-10): 2080; EE (%) [5, 13]: 84.2%
36800	3890	58.7	0.41	6.15	6.153	0.130	75.4	0.13	75.4	564.97	98.3	98.29	–	CCCCCCCCCCCCN(CCCCCCCCCCCC)CCN(CCCCCCCCCCCC)CCN1CCN(CCN(CCCCCCCC)CCCCCCCC)CC1 [Compound 22, N^1-(2-(4-(2-(Dioctylamino)ethyl)piperazin-1-yl)ethyl)-N^1,N^2,N^2-tridodecylethane-1,2-diamine]	181627	267680	75571	0.20	–	–	dose remaining in the liver after 48 hours ([1]; liver): approximately 60%
